In this experiment the test system is A549. The experiment can be described thus: Cytoxicity / crystal violet staining, A549. The class given is cell-based. The note with it: Homo sapiens, 0.01-5 μM for 72 hours, n=4.

The record followed here is patent publication US10512631B2, “Chalcone compounds” (Beth Israel Deaconess Medical Center, Inc., priority 2015, dated 2019).

Usually IC50 stands for the concentration needed to halve the response being measured. A low value points to greater potency in that assay.

In turn, `Cn1ccc2cc(/C=C3\CCc4ccc(F)cc4C3=O)ccc21` [Compound 6, (2E)-7-fluoro-2-[(1-methyl-1H-indol-5-yl)methylidene]-1,2,3,4-tetrahydronaphthalen-1-one] displayed a half-inhibitory concentration (IC50) of 0.208 µM.
